The values that follow are results of earlier work, collected in patent US9526785B2, “Pharmaceuticals for oral delivery” (Enteris BioPharma, Inc., priority 2013, dated 2016).

The conditions of series [1]: known formulations; cited from earlier work.
For series [2] the following is noted: cited from earlier work.

Each structure is given as a SMILES string.

For `CN(C)c1cc(NC(=O)CNC(C)(C)C)c(O)c2c1C[C@H]1C[C@H]3[C@H](N(C)C)C(O)=C(C(N)=O)C(=O)[C@@]3(O)C(O)=C1C2=O` [Tigecycline], in series [1], the “maximal oral bioavailablity % (% F)” value is “less than 5%”. Also, the aqueous solubility result in series [2] is listed as “approximately 300 mg/mL”.
